Measured values as given in paper PMC4768645, “Electronic Olfactory Sensor Based on A. mellifera Odorant‐Binding Protein 14 on a Reduced Graphene Oxide Field‐Effect Transistor” (Angewandte Chemie (International Ed. in English), 2015).
Where two headings read alike, the source gives them in different places.

Target: T1, odorant-binding protein 14 (OBP14) (Apis mellifera, UniProt A0A8U0WQC3)
T1 construct: recombinant OBP14, cloning, expression and purification in supplement; immobilised via PBSE linker on reduced graphene oxide FET gate
T1 sequence (A0A8U0WQC3 17-135): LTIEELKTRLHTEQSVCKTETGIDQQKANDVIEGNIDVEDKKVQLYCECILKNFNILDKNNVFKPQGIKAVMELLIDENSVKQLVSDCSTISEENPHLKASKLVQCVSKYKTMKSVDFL
Test: rGO-FET biosensor, real-time source-drain current, global Langmuir analysis
Excerpt: rGO-FET biosensor, real-time source-drain current, global Langmuir analysis on odorant-binding protein 14 (OBP14)

CC(C)=CCCC(C)=CC=O [Citral]
Kd (read-out: Citral): 800 µM

C=CCc1ccc(O)c(OC)c1 [Eugenol]
Kd (read-out: Eugenol): 40 µM

CC(C)=CCC/C(C)=C/CO [Geraniol]
Kd (read-out: Geraniol): 3300 µM

COc1cc(CC(=O)O)ccc1O [Homovanillic acid]
Kd (read-out: Homovanillic acid): 4 µM

C=CCc1ccc(OC)c(OC)c1 [Methyl eugenol]
Kd (read-out: Methyl eugenol): 1400 µM

COC(=O)c1ccc(O)c(OC)c1 [Methyl vanillate]
Kd (read-out: Methyl vanillate): 20 µM
